# Test results published in patent US20120058150A1, “Methods for Delivering Compositions by Electrospraying a Medical Device” (COLORADO STATE UNIVERSITY RESEARCH FOUNDATION, priority 2010, published 2012).
# Assay: gentamicin sulfate loading efficiency of E-sprayed DOPS coatings
# Format: physicochemical
# Conditions: 14 kV E-spray voltage compared with the other voltages (FIG. 4)
substance,measurement,value
gentamicin sulfate,gentamicin sulfate loading efficiencies,significantly greater
